From patent US12123048B2, “Fluorinated 4′-alkylumbelliferyl a-D-glucopyranosides, biological sterilization indicators including the same and methods of using the same” (3M INNOVATIVE PROPERTIES COMPANY, priority 2018, dated 2024)

Test system: Geobacillus stearothermophilus spores (ATCC 7953)
Experiment: Fluorescence measurements using enzyme substrates and Geobacillus stearothermophilus spores in LB broth
Assay type: cell-based
Conditions: substrate 0.3 mg/mL, 5×10^6 spores, 60° C.
Procedure: Luria-Bertani (LB) broth was prepared by dissolving tryptone (10 g/L), yeast extract (5 g/L), and NaCl (5 g/L) in deionized water. In the examples, 6′-fluoro-4′-methylumbelliferyl α-D-glucopyranoside (0.3 mg/mL) or 5′-fluoro-4′-methylumbelliferyl α-D-glucopyranoside (0.3 mg/mL) was added to the broth. In the comparative examples, 4′-methylumbelliferyl α-D-glucopyranoside (MUG) (0.3 mg/mL) or 6′,8′-Difluoro-4′-methylumbelliferyl α-D-glucopyranoside (0.3 mg/mL) was added to the broth. The pH of the broth was adjusted to either pH 6, pH 7, pH 8, or pH 9 using 0.1 N hydrochloric acid or 1N sodium hydroxide solutions. The broth was passed through a 0.22 micron filter prior to use.
LB broth (pH 6) containing 6′-fluoro-4′-methylumbelliferyl α-D-glucopyranoside (0.3 mg/mL) (enzyme substrate of Example 1) was added to two wells (100 microliters per well) of a black 96-well microtiter plate with optically clear, flat bottom wells (NUNC #165301, Thermo Fisher Scientific, Waltham, MA). A 5 microliter aqueous suspension containing 5×10^6 Geobacillus stearothermophilus spores (ATCC 7953) was added to each well of the microtiter plate. Next, the contents of each well were mixed using a multiple aspiration/delivery sequence with the pipet. […] The top of the plate was covered with an optically clear sealing film (product #4311971, Applied Biosystems Corporation, Foster City, CA). The plate was warmed at 60° C. and shaken in a linear direction. Fluorescence readings (360 nm excitation/450 nm emission at 50% gain) were taken from the bottom of the plate. A reading was taken at an initial time point of 10 seconds and then at +1 minute intervals thereafter. A Synergy Neo2 fluorescence plate reader (BioTek Company, Winooski, VT) was used. In Table 1, the mean fluorescence values detected (RFU) at times of 10 seconds, +5 minutes, +10 minutes, and +30 minutes are reported. The mean fluorescence values detected for the control wells were 978 RFU at 10 seconds; 920 RFU at +5 minutes; 870 RFU at +10 minutes, and 746 RFU at +30 minutes.
(§1) The procedure of Example 3 was followed, with the exception that the LB broth (pH 6) containing 6′-fluoro-4′-methylumbelliferyl α-D-glucopyranoside (0.3 mg/mL) was replaced with LB broth (pH 6) containing 5′-fluoro-4′-methylumbelliferyl-α-D-glucopyranoside (0.3 mg/mL) (enzyme substrate of Example 2). In Table 1, the mean fluorescence values detected (RFU) at times of 10 seconds, +5 minutes, +10 minutes, and +30 minutes are reported. The mean fluorescence values detected for the control wells were 828 RFU at 10 seconds; 784 RFU at +5 minutes; 738 RFU at +10 minutes, and 622 RFU at +30 minutes.
as §1, with “4-methylumbelliferyl α-D-glucopyranoside” for “5′-fluoro-4′-methylumbelliferyl-α-D-glucopyranoside”, “(MUG).” for “(enzyme substrate of Example 2).”, “868” for “828”, “802” for “784”, “756” for “738”, “656” for “622”
The procedure of Example 3 was followed, with the exception that the LB broth (pH 6) containing 6′-fluoro-4′-methylumbelliferyl α-D-glucopyranoside (0.3 mg/mL) was replaced with LB broth (pH 6) containing 6′,8′-difluoro-4′-methylumbelliferyl α-D-glucopyranoside (0.3 mg/mL) (enzyme substrate of Comparative Example A). In Table 1, the mean fluorescence values detected (RFU) at times of 10 seconds, +5 minutes, +10 minutes, and +30 minutes are reported. The mean fluorescence values detected for the control wells were 1,768 RFU at 10 seconds; 1,750 RFU at +5 minutes; 1,743 RFU at +10 minutes, and 1,805 RFU at +30 minutes. […]

[1] = pH 6 LB broth, 360 nm excitation/450 nm emission

SMILES	MEASURED FLUORESCENCE, RFU 10 sec [1] [RFU]	MEASURED FLUORESCENCE, RFU +5 min (pH 6 LB broth) [RFU]	MEASURED FLUORESCENCE, RFU +10 min (pH 6 LB broth) [RFU]	MEASURED FLUORESCENCE, RFU +30 min (pH 6 LB broth) [RFU]	MEASURED FLUORESCENCE, RFU 10 sec (pH 7 LB broth) [RFU]	MEASURED FLUORESCENCE, RFU +5 min (pH 7 LB broth) [RFU]	MEASURED FLUORESCENCE, RFU +10 min (pH 7 LB broth) [RFU]	MEASURED FLUORESCENCE, RFU +30 min (pH 7 LB broth) [RFU]	MEASURED FLUORESCENCE, RFU 10 sec (pH 8 LB broth) [RFU]	MEASURED FLUORESCENCE, RFU +5 min (pH 8 LB broth) [RFU]	MEASURED FLUORESCENCE, RFU +10 min (pH 8 LB broth) [RFU]	MEASURED FLUORESCENCE, RFU +30 min (pH 8 LB broth) [RFU]	MEASURED FLUORESCENCE, RFU 10 sec (pH 9 LB broth) [RFU]	MEASURED FLUORESCENCE, RFU +5 min (pH 9 LB broth) [RFU]	MEASURED FLUORESCENCE, RFU +10 min (pH 9 LB broth) [RFU]	MEASURED FLUORESCENCE, RFU +30 min (pH 9 LB broth) [RFU]
Cc1cc(=O)oc2cc(O[C@H]3O[C@H](CO)[C@@H](O)[C@H](O)[C@H]3O)c(F)cc12 [Example 1, 6′-Fluoro-4′-methylumbelliferyl α-D-glucopyranoside]	11764	30536	51188	82334	24718	54317	79851	>100000	11298	32225	61862	>100000	2823	8863	22809	77125
Cc1cc(=O)oc2cc(O[C@H]3O[C@H](CO)[C@@H](O)[C@H](O)[C@H]3O)cc(F)c12 [Example 2, 5′-Fluoro-4′-methylumbelliferyl α-D-glucopyranoside]	1663	3559	7048	20550	5842	15059	28596	58390	3928	11692	26273	66491	1116	3002	7983	43732
Cc1cc(=O)oc2c(F)c(O[C@H]3O[C@H](CO)[C@@H](O)[C@H](O)[C@H]3O)c(F)cc12 [Comparative Example A, 6′,8′-Difluoro-4′-methylumbelliferyl α-D-glucopyranoside]	29807	68823	85625	>100000	32795	67118	89943	>100000	20878	48312	77765	>100000	4119	12620	31290	77404
Cc1cc(=O)oc2cc(O[C@H]3O[C@H](CO)[C@@H](O)[C@H](O)[C@H]3O)ccc12 [MUG, 4′-methylumbelliferyl-α-D-glucopyranoside]	1590	3100	5607	15915	3298	7944	15511	41643	3450	9572	21171	64484	1193	3444	9258	48874
